Reference: ChEMBL document CHEMBL2346586, “N-substituted azaindoles as potent inhibitors of Cdc7 kinase” (Bioorg Med Chem Lett, 2013)
pIC50: −log10 of the molar value.

Tests used:
[1] = target: Cyclin-dependent kinase 2 (Homo sapiens, UniProt P24941); assay: Inhibition of CDK2 (unknown origin)
[2] = target: T1, Cell division cycle 7-related protein kinase (Homo sapiens, UniProt O00311); assay: Inhibition of CDC7 (unknown origin)
[3] = Intrinsic clearance in rat liver microsomes; format: ADME, Microsome; conditions: read-out: CLH
[4] = Intrinsic clearance in human liver microsomes; format: ADME, Microsome; conditions: read-out: CLH
[5] = target: T1, Cell division cycle 7-related protein kinase; assay: Inhibition of CDC7 in human HCT116 cells assessed as MCM2 phosphorylation; format: cell-based, HCT-116
[6] = species: Homo sapiens; assay: Selectivity ratio of IC50 for CDK2 (unknown origin) to IC50 for CDC7 (unknown origin)

T1 sequence (O00311 whole entry): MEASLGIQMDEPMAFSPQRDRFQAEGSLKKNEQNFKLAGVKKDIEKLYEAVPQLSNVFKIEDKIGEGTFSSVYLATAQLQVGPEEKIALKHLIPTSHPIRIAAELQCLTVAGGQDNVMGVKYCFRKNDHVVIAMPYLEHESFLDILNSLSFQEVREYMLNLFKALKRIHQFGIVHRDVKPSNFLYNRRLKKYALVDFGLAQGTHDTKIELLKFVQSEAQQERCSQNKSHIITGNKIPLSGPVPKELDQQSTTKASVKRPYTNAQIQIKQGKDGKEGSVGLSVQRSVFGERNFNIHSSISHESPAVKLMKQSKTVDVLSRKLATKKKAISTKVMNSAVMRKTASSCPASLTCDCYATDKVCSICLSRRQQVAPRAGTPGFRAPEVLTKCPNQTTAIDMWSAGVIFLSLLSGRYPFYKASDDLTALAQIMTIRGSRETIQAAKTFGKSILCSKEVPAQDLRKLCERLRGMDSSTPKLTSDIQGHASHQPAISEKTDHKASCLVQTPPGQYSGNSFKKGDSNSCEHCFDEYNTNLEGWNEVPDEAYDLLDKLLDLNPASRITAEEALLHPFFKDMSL

Structure (SMILES) | pIC50 [1] | pIC50 [2] | microsomal CLint [3] [µL/min/mg] | microsomal CLint [4] [µL/min/mg] | pIC50 [5] | Ratio IC50 [6]
Nc1nccc(-n2cc(-c3ccccc3Cl)c3cnccc32)n1 | 6.96 | 7.96 | – | – | – | –
Nc1nccc(-n2cc(-c3cccnc3Cl)c3cnc(Cl)cc32)n1 | < 4.08 | 7.52 | 102 | 30 | 5.64 | > 2700
Nc1nccc(-n2cc(-c3ccc(Cl)cc3)c3cnccc32)n1 | 7.22 | 6.48 | – | – | – | –
Nc1nccc(-n2cc(-c3ccoc3)c3cnccc32)n1 | 7.00 | 6.92 | – | – | – | –
Nc1nccc(-n2ccc3cnccc32)n1 | 5.43 | 6.01 | 101 | 62 | – | –
N#Cc1ccc2ccn(-c3cc(N)ncn3)c2n1 | < 4.08 | 8.05 | 46 | 34 | 5.86 | –
CNc1nccc(-n2ccc3ccc(C#N)cc32)n1 | 5.57 | 7.60 | – | – | – | –
N#Cc1ccc2ccn(-c3nccc(N)n3)c2c1 | < 4.54 | 5.06 | – | – | – | –
Nc1nccc(-n2cc(-c3cc[nH]n3)c3cnccc32)n1 | 6.26 | 6.24 | – | – | – | –
Nc1nccc(-n2ccc3ncccc32)n1 | 4.68 | 4.90 | 50 | 60 | – | –
Nc1nccc(-n2cc(-c3cccnc3)c3cnccc32)n1 | 5.96 | 6.80 | – | – | – | 7
N#Cc1ccc2ccn(-c3cc(N)ncn3)c2c1 | < 4.08 | 5.57 | – | – | – | –
N#Cc1ccc2ccn(-c3ccncn3)c2c1 | < 4.08 | 5.82 | – | – | – | –
N#Cc1ccc2ccn(-c3ccnc(N)c3)c2c1 | 4.41 | 5.05 | 122 | 201 | < 4.30 | –
Nc1nccc(-n2cc(-c3ccncc3)c3cnccc32)n1 | 6.80 | 6.60 | – | – | – | –
Nc1nccc(-n2cc(-c3cccc(Cl)c3)c3cnccc32)n1 | < 4.08 | 6.80 | – | – | – | > 500
Nc1nccc(-n2cc(C3=CCOCC3)c3cnccc32)n1 | 6.80 | 6.80 | – | – | – | –
N#Cc1cnc2ccn(-c3ccnc(N)n3)c2c1 | < 4.08 | 5.28 | 64 | 108 | – | –
Nc1nccc(-n2cc(-c3cccnc3Cl)c3cnccc32)n1 | 6.51 | 8.15 | 72 | 21 | 6.07 | 44
Nc1nccc(-n2cc(-c3ccccc3)c3cnccc32)n1 | 6.51 | 6.98 | – | – | – | 3
N#Cc1ccc2ccn(-c3cccc(N)n3)c2c1 | 4.35 | 4.98 | – | – | – | –
N#Cc1cc2c(ccn2-c2ccnc(N)n2)cn1 | < 4.36 | 5.91 | 49 | 94 | – | –
Nc1nccc(-n2ccc3cnc(Cl)cc32)n1 | 4.42 | 6.44 | 134 | 104 | < 4.30 | > 100
Nc1nccc(-n2ccc3cccnc32)n1 | 4.38 | 4.57 | 282 | 338 | < 4.30 | –

Second part, the compound after the results:

pIC50 [1] | pIC50 [2] | microsomal CLint [3] [µL/min/mg] | microsomal CLint [4] [µL/min/mg] | pIC50 [5] | Ratio IC50 [6] | Structure (SMILES)
4.77 | 5.96 | – | – | – | – | Nc1nccc(-n2ccc3ccc(C(F)(F)F)cc32)n1
4.55 | 5.33 | 375 | 387 | < 4.30 | – | Nc1nccc(-n2ccc3ccccc32)n1
5.09 | 6.46 | – | – | – | – | Nc1nccc(-n2ccc3ccc(Br)cc32)n1
4.35 | 6.03 | 64 | 134 | – | – | Nc1nccc(-n2ccc3ccncc32)n1
< 4.51 | 7.09 | – | – | – | – | Nc1nccc(-n2ccc3ccc([N+](=O)[O-])cc32)n1
5.00 | 6.12 | – | – | – | – | C#Cc1ccc2ccn(-c3ccnc(N)n3)c2c1
4.78 | 7.12 | 124 | 430 | 5.30 | 220 | N#Cc1ccc2ccn(-c3ccnc(N)n3)c2c1
4.47 | 6.81 | – | – | – | – | Nc1nccc(-n2ccc3ccc(F)cc32)n1
5.43 | 7.18 | – | – | – | 56 | Nc1nccc(-n2ccc3ccc(Cl)cc32)n1
5.30 | 5.48 | – | – | – | – | Nc1nccc(-n2ccc3ccc(O)cc32)n1
< 4.54 | 5.07 | – | – | – | – | N#Cc1ccc2c(ccn2-c2ccnc(N)n2)c1
